Experimental findings from ChEMBL document CHEMBL2086381, “Identification of 4,5-dihydro-4-hydroxygeldanamycins as shunt products of geldanamycin biosynthesis” (J Nat Prod, 2012) are described below.

A word on the IC50: it is the concentration needed to halve the response being measured. Low values mean inhibition by little substance, high ones a need for much substance.

The assay concerns HepG2. Briefly: Cytotoxicity against human HepG2 cells. Type of assay: functional, cell-based.
The compound `COC1=C2C[C@@H](C)C[C@H](OC)[C@H](O)[C@@H](C)/C=C(\C)[C@H](OC(N)=O)[C@@H](OC)C[C@H](O)/C=C(\C)C(=O)NC(=CC1=O)C2=O` yielded an IC50 of 10.5 µM.

Take `COC1=C2C[C@@H](C)C[C@H](OC)[C@H](O)[C@@H](C)/C=C(\C)[C@H](OC(N)=O)[C@@H](OC)C[C@@H](O)/C=C(\C)C(=O)NC(=CC1=O)C2=O`: half-maximal inhibition (IC50) was put at 10.8 µM.

Regarding `COC1=C2C[C@@H](C)C[C@H](OC)[C@H](O)[C@@H](C)/C=C(\C)[C@H](OC(N)=O)[C@@H](OC)/C=C\C=C(/C)C(=O)NC(=CC1=O)C2=O` [GELDANAMYCIN], the 50% inhibitory concentration (IC50) is 0.37 µM.
